Laboratory results reported in US20020132853A1, “Capsaicin receptor ligands” (priority 2000, published 2002).

Biological target: T1, human capsaicin receptor (Homo sapiens, UniProt Q8NER1)
T1 construct: expression consrtuct encoding the full length human capsaicin receptor; expressed in transfected cells
Assay: Antagonist assay for Capsaicin receptor mediated calcium mobilization
Type: cell-based
Conditions: Table III, read-out: EC50 (the source's name)
Description: Calcium Mobilization Assay
Cells transfected with expression plasmids (as described in Example 10) and thereby expressing the human capsaicin receptor are seeded and grown to 70-90% confluency in FALCON black-walled, clear-bottomed 96-well plates (#3904, BECTON-DICKINSON, Franklin Lakes, N.J.) . The culture media are emptied from the 96 well plates and FLUO-3 AM calcium sensitive dye (Molecular Probes, Eugene, OR) is added to each well (dye solution: 1 mg FLUO-3 AM, 440 uL DMSO and 440 ul 20% pluronic acid in DMSO, diluted 1:4, 50 ul diluted solution per well). Plates are covered with aluminum foil and incubated at 37° C for 1-2 hours in an environment containing 5% CO2. After the incubation the dye is emptied from the plates, and the cells are washed once with Krebs-Ringer HEPES (KRH) buffer (25 mM HEPES, 5 mM KCl, 0.96 mM NaH2PO4, 1 MM MgSO4, 2 mM CaCl2, 5 mM glucose, 1 mM probenecid, pH 7.4), and resuspended in KRH buffer.
Agonist (e.g., olvanil, capsaicin, or RTX)-induced calcium mobilization is monitored using either FLUOROSKAN ASCENT (Labsystems, Franklin, Mass.) or FLIPR (fluorometric imaging plate reader system, Molecular Devices, Sunnyvale, Calif.) instruments. Similarly, varying concentrations of the antagonists ruthenium red or capsazepine are added to cells concurrently with agonist (e.g., 25-50 nM capsaicin). For agonist-induced calcium responses, data obtained between 30 and 60 seconds after agonist application are used to generate the EC50 values. […] software (Synergy Software, Reading, Pa.) was utilized to fit the data to the equation: […]
to determine the EC50 for the response. In this equation, y is the maximum fluorescence signal, x is the concentration of the agonist or antagonist, a is the Emax, b corresponds to the EC50 or IC50 value, and finally, c is the Hill coefficient.
Assay for Determination of Capsaicin Receptor Antagonist Effects
In order to measure the ability of a test compound to antagonize (inhibit) the response of cells expressing capsaicin receptors to capsaicin or other vanilloid agonist, the EC50 of capsaicin is first determined.
An additional 20 ul of KRH buffer and 1 ul DMSO is added to each well of cells, prepared as described above. 100 ul capsaicin in KRH buffer is automatically transferred by the FLIPR instrument to each well.
Test compounds are dissolved in DMSO, diluted in 20 ul KRH buffer so that the final concentration of test compounds in the assay well is between 1 uM and 5 uM, and added to cells prepared as described above. The 96 well plates containing prepared cells and test compounds are incubated in the dark, at room temperature for 0.5-6 hours. It is important that the incubation not continue beyond 6 hours. Just prior to determining the fluorescence response, 100 ul capsaicin in KRH buffer at twice the EC50 concentration determined from the concentration response curve is automatically added by the FLIPR instrument to each well of the 96 well plate for a final sample volume of 200 ul and a final capsaicin concentration equal to the EC50. The final concentration of test compounds in the assay wells is between 1 uM and 5 uM. […] Antagonists of the capsaicin receptor decrease this response by about 20%, preferably by about 50%, and most preferably by at least 80% as compared to matched control. The concentration of antagonist required to provide a 50% decrease is the EC50 for the antagonist (also referred to as the IC50).

T1 sequence (Q8NER1 whole entry): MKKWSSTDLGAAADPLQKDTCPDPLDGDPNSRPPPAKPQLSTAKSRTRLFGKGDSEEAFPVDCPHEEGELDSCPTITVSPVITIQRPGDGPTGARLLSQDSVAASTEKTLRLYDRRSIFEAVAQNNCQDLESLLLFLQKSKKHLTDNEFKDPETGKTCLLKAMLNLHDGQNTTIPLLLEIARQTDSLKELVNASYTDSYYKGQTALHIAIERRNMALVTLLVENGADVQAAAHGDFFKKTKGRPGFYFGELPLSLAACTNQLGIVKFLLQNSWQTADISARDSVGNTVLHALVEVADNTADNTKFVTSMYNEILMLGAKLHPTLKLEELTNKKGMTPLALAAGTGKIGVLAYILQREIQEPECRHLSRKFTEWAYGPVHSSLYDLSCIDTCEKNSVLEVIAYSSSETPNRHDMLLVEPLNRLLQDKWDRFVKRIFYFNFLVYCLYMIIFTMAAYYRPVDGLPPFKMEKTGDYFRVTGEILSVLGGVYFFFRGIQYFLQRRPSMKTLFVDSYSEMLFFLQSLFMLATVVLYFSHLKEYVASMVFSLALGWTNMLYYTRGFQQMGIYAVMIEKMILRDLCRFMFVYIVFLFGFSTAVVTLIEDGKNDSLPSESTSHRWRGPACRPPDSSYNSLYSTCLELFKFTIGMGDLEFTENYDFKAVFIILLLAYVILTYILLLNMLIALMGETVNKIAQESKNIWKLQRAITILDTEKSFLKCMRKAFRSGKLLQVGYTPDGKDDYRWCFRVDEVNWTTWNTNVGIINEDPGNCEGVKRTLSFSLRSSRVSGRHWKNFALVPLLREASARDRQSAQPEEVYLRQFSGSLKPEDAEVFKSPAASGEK

IC50, < 1000 nM:
C[C@@H]1CN(c2ncccc2Cl)CCN1C(=O)Nc1ccc(C(C)(C)C)cc1 [Compound 21, (2R)-N-(4-tert-butylphenyl)-4-(3-chlorpyridin-2-yl)-2-methylpiperazine-1-carboxamide]
C[C@@H]1CN(c2ncccc2Cl)CCN1C(=O)Nc1ccc(C2CCOCC2)cc1 [Compound 49, (2R)-4-(3-chloropyridin-2-yl)-2-methyyl-N-(4-tetrahydro-2H-pyran-4-ylphenyl)piperazne-1-carboxamide]
CCc1nc(-c2ccc(NC(=O)N3CCN(c4ncccc4Cl)C[C@H]3C)cc2)cs1 [Compound 53, (2R)-4-(3-chloropyridin-2-yl)-N-[4-(2-ethyl-1,3-thiazol-4-yl)phenyl]-2-methylpiperazine-1-carboxamide]
C[C@H]1CN(c2ncccc2Cl)CCN1C(=O)Nc1ccc(C(C)(C)C)cc1 [Compound 24, (2S)-N-(4-tert-butylphenyl)-4-(3-chloropyridin-2-yl)-2-methylpiperazine-1-carboxamide]
COc1cccnc1N1CCN(C(=O)Nc2ccc(C(C)(C)C)cc2)[C@H](C)C1 [Compound 45, (2R)-N-(4-tert-butylphenyl)-4-(3-methoxypyridin-2-yl)-2-methylpiperazine-1-carboxamide]
C[C@@H]1CN(c2ncccc2C(F)(F)F)CCN1C(=O)Nc1ccc(C(F)(F)F)cc1 [Compound 28, (2R)-2-methyl-N-[4-(trifluoromethyl)phenyl]-4-[3-(trifluoromethyl)pyridin-2-yl]piperazine-1-carboxamide]
CC(C)C1CN(c2ncccc2C(F)(F)F)CCN1C(=O)Nc1ccc(C(C)(C)C)cc1 (stereo not shown) [Compound 72, N-(4-tert-butylphenyl)-2-isopropylk-4-[3-(trifluoromethyl)pyridin-2-yl]piperazine-1-carboxamide]
CC(C)c1ccc(NC(=O)N2CCN(c3ncccc3C(F)(F)F)C[C@H]2C)cc1 [Compound 30, (2R)-N-(4-isopropylphenyl)-2-methyl-4-[3-(trifluoromethyl)pyridin-2-yl]piperazine-1-carboxamide]
CC1CN(c2ncccc2Cl)CC(C)N1C(=O)Nc1ccc(C2CCCCC2)cc1 (stereo not shown) [Compound 35, 4-(3-chloropyridin-2-yl)-N-(4-cyclohexylphenyl) 2,6-dimethylpiperazine-1-carboxamide]
CC(C)(C)c1ccc(NC(=O)N2CCN(c3ncccc3Cl)CC2C(C)(C)C)cc1 (stereo not shown) [Compound 64, 2-tert-butyl-N-(4-tert-butylphenyl)-4-(3-chloropyridin-2-yl)piperazine-1-carboxamide]
C[C@@H]1CN(c2ncccc2Cl)CCN1C(=O)Nc1ccc(C2=CCOCC2)cc1 [Compound 48, (2R)-4-(3-chloropyridin-2-yl)-N-[4-(3,6-dihydro-2H-pyran-4-yl)phenyl]-2-methylpiperazine-1-carboxamide]
C[C@@H]1CN(c2nccc3ccccc23)CCN1C(=O)Nc1ccc(C(F)(F)F)cc1 [Compound 38, (2R)-4-isoquinolin-1-yl-2-methyl-N-[4-(trifluoromethyl)phenyl]piperazine-1-carboxamide]

Same assay, conditions: Table IV, read-out: EC50 (the source's name)

IC50, < 1000 nM:
CC(C)C1CCC(NC(=O)N2CCN(c3ncccc3Cl)C[C@H]2C)CC1 (stereo partly drawn) [Compound 100, (2R)-4-(3-chloropyridin-2-yl)-N-(4-isopropylcyclohexyl)-2-methylpiperazine-1-carboxamide]
C[C@@H]1CN(c2ncccc2Cl)CCN1C(=O)Nc1ccc(C(F)(F)F)cn1 [Compound 94, (2R)-4-(3-chloropyridin-2-yl)-2-methyl-N-[5-(trifluoromethyl)pyridin-2-yl]piperazine-1-carboxamide]
C[C@@H]1CN(c2ncccc2Cl)CCN1C(=O)NC1CCC(C(C)(C)C)CC1 (stereo partly drawn) [Compound 99, (2R)-N-(4-tert-butylcyclohexyl)-4-(3-chloropyridin-2-yl)-2-methylpiperazine-1-carboxamide]

Same assay, conditions: Table V, read-out: EC50 (the source's name)

IC50, < 1000 nM:
C=C(c1ccc(NC(=O)N2CCN(c3ncccc3C(F)(F)F)C[C@H]2C)cc1)C(F)(F)F [Compound 126, (2R)-2-methyl-4-[3-(trifluoromethyl)pyridin-2-yl]-N-{4-[1-(trifluoromethyl)vinyl]phenyl}piperazine-1-carboxamide]
C[C@@H]1CN(c2ncccc2F)CCN1C(=O)Nc1cccc(I)c1 [Compound 151, (2R)-4-(3-fluoropyridin-2-yl)-N-(3-iodophenyl)-2-methylpiperazine-1-carboxamide]
Cc1cc(NC(=O)N2CCN(c3ncccc3Cl)C[C@H]2C)ccc1C(F)(F)F [Compound 121, (2R)-4-(3-chloropyridin-2-yl)-2-methyl-N-[3-methyl-4-(trifluoromethyl)phenyl]piperazine-1-carboxamide]
C[C@@H]1CN(c2ncccc2C(F)(F)F)CCN1C(=O)Nc1ccc(Br)c(C(F)(F)F)c1 [Compound 157, (2R)-N-[4-bromo-3-(trifluoromethyl)phenyl]-2-methyl-4-[3-(trifluoromethyl)pyridin-2-yl]piperazine-1-carboxamide]
C[C@@H]1CN(c2ncccc2C(F)(F)F)CCN1C(=O)Nc1ccc(C(C(F)(F)F)(C(F)(F)F)C(F)(F)F)cc1 [Compound 149, (2R)-2-methyl-N-{4-[2,2,2-trifluoro-1,1-bis(trifluoromethyl)-ethyl]phenyl}-4-[3-(trifluoromethyl)pyridin-2-yl]piperazine-1-carboxamide]
O=C(Nc1ccc(OC(F)(F)F)cc1)N1CCN(c2ncccc2C(F)(F)F)CC1 [Compound 117, N-[4-(trifluoromethoxy)phenyl]-4-[3-(trifluoromethyl)pyridin-2-yl]piperazine-1-carboxamide]
O=C(Nc1ccc(Cl)c([N+](=O)[O-])c1)N1CCN(c2ncccc2C(F)(F)F)CC1 [Compound 118, N-(4-chloro-3-nitrophenyl)-4-[3-(trifluoromethyl)pyridin-2-yl]piperazine-1-carboxamide]
O=C(Nc1cc(Cl)cc(Cl)c1)N1CCN(c2ncccc2C(F)(F)F)CC1 [Compound 119, N-(3,5-dichlorophenyl)-4-[3-(trifluoromethyl)pyridin-2-yl]piperazine-1-carboxamide]
O=C(Nc1ccc(OC(F)(F)F)cc1)N1CCN(c2cc(C(F)(F)F)ccn2)CC1 [Compound 108, N-[4-*trifluoromethoxy)phenyl]-4-[4-(trifluoromethyl)pyririn-2-yl]piperazine-1-carboxamide]
CCC(C)c1ccc(NC(=O)N2CCN(c3ncccc3F)C[C@H]2C)cc1 (stereo partly drawn) [Compound 128, (2R)-N-(4-sec-butylphenyl)-4-(3-fluoropyridin-2-yl)-2-methylpiperazine-1-carboxamide]
C[C@@H]1CN(c2ncccc2N(S(C)(=O)=O)S(C)(=O)=O)CCN1C(=O)Nc1ccc(C(C)(C)C)cc1 [Compound 123, (2R)-4-{3-[bis(methylsulfonyl)amino]pyridin-2-yl}-N-(4-tert-butylphenyl)-2-methylpiperazine-1-carboxamide]
C[C@@H]1CN(c2ncccc2Cl)CCN1C(=O)Nc1ccc(Br)c(C(F)(F)F)c1 [Compound 156, (2R)-N-[4-bromo-3-(trifluoromethyl)phenyl]-4-(3-chloropyridin-2-yl)-2-methylpiperazine-1-carboxamide]

Same assay, conditions: Table VI, read-out: EC50 (the source's name)

IC50, < 1000 nM:
C[C@@H]1CN(c2nccnc2Cl)CCN1C(=O)Nc1ccc(C(F)(C(F)(F)F)C(F)(F)F)cc1 [Compound 164, (2R)-4-(3-chloropyrazin-2-yl)-2-methyl-N-{4-[1,2,2,2-tetrafluoro-1-(trifluoromethyl)ethyl]phenyl}piperazine-1-carboxamide]
